Measured values: patent US9938257B2 (Sunshine Lake Pharma Co., Ltd., priority 2015, dated 2018)
Where two headings read alike, the source gives them in different places.

What was measured:
[1] = Compound stability in human liver microsomes; type: in vitro ADME; settings: pH 7.4; for half-life at 5 μM: human liver microsomes 0.5 mg protein/mL, compound 5 μM, NADPH 1.0 mM, 37° C., read-out: Human T1/2; for CLint scaled at 5 μM: human liver microsomes, in vivo CLint extrapolated
Protocol: (§1) Human or rat liver microsomes incubations were conducted in duplicate in polypropylene tubes. The typical incubation mixtures consisted of human or rat liver microsomes (0.5 mg protein/mL), compounds of interest (5 μM) and NADPH (1.0 mM) in a total volume of 200 μL potassium phosphate buffer (PBS, 100 mM, pH 7.4). Compounds were dissolved in DMSO and diluted with PBS such that the final concentration of DMSO was 0.05%. The enzymatic reactions were commenced with the addition of protein after a 3-min preincubation and incubated in a water bath open to the air at 37° C. Reactions were terminated at various time points (0, 5, 10, 15, 30, 60 min) by adding equal volume of ice-cold acetonitrile. The samples were stored at −80° C. until LC/MS/MS assays.
(§2) The concentrations of compounds in the incubation mixtures of human or rat liver microsomes were determined by a LC/MS/MS method. The ranges of the linearity in the concentration range were determined for each tested compounds.
(§3) A parallel incubation was performed using denatured microsomes as the negative control, and reactions were terminated at various time points (0, 15, 60 min) after incubation at 37° C.
(§4) Dextromethorphan (70 μM) was selected as the positive control, and reactions were terminated at various time points (0, 5, 10, 15, 30, 60 min) after incubation at 37° C. Both positive and negative control samples were included in each assay to ensure the integrity of the microsomal incubation system.
(§5) The concentrations of compounds in human or rat liver microsome incubations were plotted as a percentage of the relevant zero time point control for each reaction. The in vivo CLint were extrapolated (ref.: Naritomi, Y.; Terashita, S.; Kimura, S.; Suzuki, A.; Kagayama, A.; and Sugiyama, Y.; Prediction of human hepatic clearance from in vivo animal experiments and in vitro metabolic studies with liver microsomes from animals and humans. Drug Metab. Dispos., 2001, 29: 1316-1324).

[2] = Compound stability in rat liver microsomes; type: in vitro ADME; settings: pH 7.4; for half-life at 5 μM: rat liver microsomes 0.5 mg protein/mL, compound 5 μM, NADPH 1.0 mM, 37° C., read-out: Rat T1/2; for CLint scaled at 5 μM: rat liver microsomes, in vivo CLint extrapolated
Protocol: as §1, §2, §3, §4, §5

[3] = Pharmacokinetics after intravenous and oral administration in rats; type: in vivo; settings: for F: oral bioavailability; for AUC(0-t) / half-life / Vd: rat, plasma; for Vd: read-out: Vss
Protocol: The compounds disclosed herein are assessed in pharmacokinetic studies in mice, rats, dogs or monkeys. The compounds are administered as a water solution, 2% HPMC+1% TWEEN®80 in water solution, 5% DMSO+5% solutol in saline, 4% MC suspension or capsule. For the intravenous administration, the animals are generally given at 0.5, 1 or 2 mg/kg dose. For the oral (p.o.) dosing, mice and rats are generally given 0.5, 1, 5 or 10 mg/kg dose, and dogs and monkeys are generally given 10 mg/kg dose. The blood samples (0.3 mL) are drawn at 0.25, 0.5, 1.0, 2.0, 3.0, 4.0, 6.0, 8.0, 12 and 24 h time points or 0.083, 0.25, 0.5, 1.0, 2.0, 4.0, 6.0, 8.0 and 24 h time points and centrifuged at 3,000 or 4000 rpm for 2 to 10 min. The plasma solutions are collected, and stored at −20° C. or −70° C. until analyzed by LC/MS/MS as described above.

Row | half-life at 5 μM [1] [min] | CLint scaled at 5 μM [1] [mL/min/kg] | half-life at 5 μM [2] [min] | CLint scaled at 5 μM [2] [mL/min/kg] | F ([3]; iv dose 1 mg/kg) [%] | AUC(0-t) ([3]; iv dosing, dose 1 mg/kg) [ng·h/mL] | half-life ([3]; iv dosing, dose 1 mg/kg) [min] | Vd ([3]; iv dosing, dose 1 mg/kg) [L/kg] | Clearance (CL) after iv dosing ([3]; iv dosing, dose 1 mg/kg) [mL/min/kg] | SMILES | Cl/F ([3]; iv dosing, dose 1 mg/kg) [mL/min/kg] | Clearance (CL) after iv dosing ([3]; iv dosing, dose 0.5 mg/kg) [mL/min/kg] | F ([3]; iv dose 0.5 mg/kg) [%] | AUC(0-t) ([3]; iv dosing, dose 0.5 mg/kg) [ng·h/mL] | half-life ([3]; iv dosing, dose 0.5 mg/kg) [min] | Vd ([3]; iv dosing, dose 0.5 mg/kg) [L/kg]
1 | 555 | 3.13 | 3.88 | 639 | – | – | – | – | – | N#CCC(=O)N1CC2CC(Nc3nc(Nc4cnn(C5CCCNC5)c4)ncc3Cl)CC2C1 (centres unmarked) [Ex. 3, 3-(5-((5-chloro-2-((1-(piperidin-3-yl)-1H-pyrazol-4-yl)amino)pyrimidin-4-yl)amino)hexahydrocyclopenta[c]pyrrol-2(1H)-yl)-3-oxopropanenitrile] | – | – | – | – | – | –
2 | 951 | 1.83 | 68.7 | 36.1 | – | – | – | – | – | CC(=O)N1CC2CC(Nc3nc(Nc4cnn(C5CCCNC5)c4)ncc3Cl)CC2C1 (centres unmarked) [Ex. 4, 1-(5-((5-chloro-2-((1-(piperidin-3-yl)-1H-pyrazol-4-yl)amino)pyrimidin-4-yl)amino)hexahydrocyclopenta[c]pyrrol-2(1H)-yl)ethanone] | – | – | – | – | – | –
3 | 1040 | 1.66 | – | – | – | – | – | – | – | N#CCC(=O)N1CC2CC(Nc3nc(Nc4cnn(C5CCNCC5)c4)ncc3Cl)CC2C1 (centres unmarked) [Ex. 5, 3-(5-((5-chloro-2-((1-(piperidin-4-yl)-1H-pyrazol-4-yl)amino)pyrimidin-4-yl)amino)hexahydrocyclopenta[c]pyrrol-2(1H)-yl)-3-oxopropanenitrile] | – | – | – | – | – | –
4 | 660 | 2.63 | 2640 | 0.94 | – | – | – | – | – | CC(=O)N1CC2CC(Nc3nc(Nc4cnn(C5CCNCC5)c4)ncc3Cl)CC2C1 (centres unmarked) [Ex. 6, 1-(5-((5-chloro-2-((1-(piperidin-4-yl)-1H-pyrazol-4-yl)amino)pyrimidin-4-yl)amino)hexahydrocyclopenta[c]pyrrol-2(1H)-yl)ethanone] | – | – | – | – | – | –
5 | 43.2 | 40.2 | 19.8 | 126 | 102.8 | 413 | 21 | 1.19 | 40.3 | Cn1cc(Nc2ncc(Cl)c(NC3CC4CN(C(=O)N5CCOCC5)CC4C3)n2)cn1 (centres unmarked) [Ex. 29, (5-((5-chloro-2-((1-methyl-1H-pyrazol-4-yl)amino)pyrimidin-4-yl)amino)hexahydrocyclopenta[c]pyrrol-2(1H)-yl)(morpholino)methanone] | – | – | – | – | – | –
6 | 69.2 | 25.1 | 30.7 | 81 | – | – | – | – | – | CC(C)(O)Cn1cc(Nc2ncc(Cl)c(NC3CC4CN(C(=O)NC5CC5)CC4C3)n2)cn1 (centres unmarked) [Ex. 36, 5-((5-chloro-2-((1-(2-hydroxy-2-methylpropyl)-1H-pyrazol-4-yl)amino)pyrimidin-4-yl)amino)-N-cyclopropylhexahydrocyclopenta[c]pyrrole-2(1H)-carboxamide] | – | – | – | – | – | –

The remaining lines, values behind:

Row | SMILES | half-life at 5 μM [1] [min] | CLint scaled at 5 μM [1] [mL/min/kg] | half-life at 5 μM [2] [min] | CLint scaled at 5 μM [2] [mL/min/kg] | F ([3]; iv dose 1 mg/kg) [%] | AUC(0-t) ([3]; iv dosing, dose 1 mg/kg) [ng·h/mL] | half-life ([3]; iv dosing, dose 1 mg/kg) [min] | Vd ([3]; iv dosing, dose 1 mg/kg) [L/kg] | Clearance (CL) after iv dosing ([3]; iv dosing, dose 1 mg/kg) [mL/min/kg] | Cl/F ([3]; iv dosing, dose 1 mg/kg) [mL/min/kg] | Clearance (CL) after iv dosing ([3]; iv dosing, dose 0.5 mg/kg) [mL/min/kg] | F ([3]; iv dose 0.5 mg/kg) [%] | AUC(0-t) ([3]; iv dosing, dose 0.5 mg/kg) [ng·h/mL] | half-life ([3]; iv dosing, dose 0.5 mg/kg) [min] | Vd ([3]; iv dosing, dose 0.5 mg/kg) [L/kg]
7 | Cn1cc(Nc2ncc(Cl)c(NC3CCC4(CC3)CCN(S(=O)(=O)C3CC3)CC4)n2)cn1 | 61 | 28.5 | 30 | 82.7 | 64.4 | 363 | 37.2 | 2.07 | – | 46.3 | – | – | – | – | –
8 | CC(=O)N1CC2CC(Nc3nc(Nc4cnn(-c5ccccn5)c4)ncc3Cl)CC2C1 (centres unmarked) [Ex. 8, 1-(5-((5-chloro-2-((1-(pyridin-2-yl)-1H-pyrazol-4-yl)amino)pyrimidin-4-yl)amino)hexahydrocyclopenta[c]pyrrol-2(1H)-yl)ethanone] | 31.4 | 55.3 | 16.2 | 153 | 36.9 | 558 | 33.6 | 1.55 | 31 | – | – | – | – | – | –
9 | COc1ccc(-n2cc(Nc3ncc(Cl)c(NC4CC5CN(C(C)=O)CC5C4)n3)cn2)cn1 (centres unmarked) [Ex. 11, 1-(5-((5-chloro-2-((1-(6-methoxypyridin-3-yl)-1H-pyrazol-4-yl)amino)pyrimidin-4-yl)amino)hexahydrocyclopenta[c]pyrrol-2(1H)-yl)ethanone] | – | – | – | – | 19.5 | 235 | 18 | 1.22 | 75.3 | – | – | – | – | – | –
10 | Cn1cc(Nc2ncc(Cl)c(NC3CCC4(CC3)CCN(C(=O)CC3CC3)CC4)n2)cn1 [Ex. 20, 1-(9-((5-chloro-2-((1-methyl-1H-pyrazol-4-yl)amino)pyrimidin-4-yl)amino)-3-azaspiro[5.5]undecan-3-yl)-2-cyclopropyl ethanone] | – | – | – | – | – | – | – | – | – | – | 24.7 | 91.2 | 348 | 42 | 1.07
11 | Cn1cc(Nc2ncc(Cl)c(NC3CCC4(CC3)CCN(CC(C)(C)O)CC4)n2)cn1 [Ex. 21, 1-(9-((5-chloro-2-((1-methyl-1H-pyrazol-4-yl)amino)pyrimidin-4-yl)amino)-3-azaspiro[5.5]undecan-3-yl)-2-methylpropan-2-ol] | 404 | 4.3 | 62.9 | 39.5 | 118.2 | 147 | 87.6 | 11.9 | 109 | – | – | – | – | – | –
12 | Cn1cc(Nc2ncc(Cl)c(NC3CCC4(CC3)CCN(C(=O)C3CC3)CC4)n2)cn1 [Ex. 22, (9-((5-chloro-2-((1-methyl-1H-pyrazol-4-yl)amino)pyrimidin-4-yl)amino)-3-azaspiro[5.5]undecan-3-yl)(cyclopropyl)methanone] | 65.7 | 26.5 | 3.33 | 745 | 84.6 | 746 | 33.6 | 1.21 | 22.3 | – | – | – | – | – | –
13 | Cn1cc(Nc2ncc(Cl)c(NC3CC4CN(C(=O)c5ccccc5)CC4C3)n2)cn1 (centres unmarked) [Ex. 27, (5-((5-chloro-2-((1-methyl-1H-pyrazol-4-yl)amino)pyrimidin-4-yl)amino)hexahydrocyclopenta[c]pyrrol-2(1H)-yl)(phenyl)methanone] | – | – | – | – | 22.5 | 218 | 13.2 | 0.93 | 77.7 | – | – | – | – | – | –
14 | Cn1cc(Nc2ncc(Cl)c(NC3CC4CN(C(=O)Nc5ccccc5)CC4C3)n2)cn1 (centres unmarked) [Ex. 28, 5-((5-chloro-2-((1-methyl-1H-pyrazol-4-yl)amino)pyrimidin-4-yl)amino)-N-phenylhexahydrocyclopenta[c]pyrrole-2(1H)-carboxamide] | 24.2 | 72 | 3.6 | 690 | 42.0 | 168 | 22.8 | 1.99 | 99.2 | – | – | – | – | – | –
15 | CC(=O)N1CCC2(CCC(Nc3nc(Nc4cnn(C5CCNCC5)c4)ncc3Cl)CC2)CC1 [Ex. 33, 1-(9-((5-chloro-2-((1-(piperidin-4-yl)-1H-pyrazol-4-yl)amino)pyrimidin-4-yl)amino)-3-azaspiro[5.5]undecan-3-yl)ethanone] | 275 | 6.32 | 321 | 7.73 | – | – | – | – | – | – | – | – | – | – | –
16 | CC(O)Cn1cc(Nc2nccc(NC3CC4CN(C(=O)NC5CC5)CC4C3)n2)cn1 (centres unmarked) [Ex. 42, N-cyclopropyl-5-((2-((1-(2-hydroxypropyl)-1H-pyrazol-4-yl)amino)pyrimidin-4-yl)amino)hexahydrocyclopenta[c]pyrrole-2(1H)-carboxamide] | 153 | 11.3 | 375 | 6.6 | – | – | – | – | – | – | – | – | – | – | –
